Measured values published in ChEMBL document CHEMBL1250451, “Mechanistic insights into a Ca2+-dependent family of alpha-mannosidases in a human gut symbiont” (Nat Chem Biol, 2010).
Active and inactive are the calls of the source. No cut-off for these calls is given here.

Columns and labels:
Type in all cases: protein assay
[1] = biological target: T1, Glycoside hydrolase family 92 (BT_3962) (Bacteroides thetaiotaomicron) (UniProt Q8A0Q9); assay: Activity of Bacteroides thetaiotaomicron GH92 alpha-mannosidase GH92 alpha-mannosidase 3962 assessed as mannose release at 1 mM after 16 hrs by HPLC relative to untreated control after 16 hrs by HPLC
T1 sequence (whole entry): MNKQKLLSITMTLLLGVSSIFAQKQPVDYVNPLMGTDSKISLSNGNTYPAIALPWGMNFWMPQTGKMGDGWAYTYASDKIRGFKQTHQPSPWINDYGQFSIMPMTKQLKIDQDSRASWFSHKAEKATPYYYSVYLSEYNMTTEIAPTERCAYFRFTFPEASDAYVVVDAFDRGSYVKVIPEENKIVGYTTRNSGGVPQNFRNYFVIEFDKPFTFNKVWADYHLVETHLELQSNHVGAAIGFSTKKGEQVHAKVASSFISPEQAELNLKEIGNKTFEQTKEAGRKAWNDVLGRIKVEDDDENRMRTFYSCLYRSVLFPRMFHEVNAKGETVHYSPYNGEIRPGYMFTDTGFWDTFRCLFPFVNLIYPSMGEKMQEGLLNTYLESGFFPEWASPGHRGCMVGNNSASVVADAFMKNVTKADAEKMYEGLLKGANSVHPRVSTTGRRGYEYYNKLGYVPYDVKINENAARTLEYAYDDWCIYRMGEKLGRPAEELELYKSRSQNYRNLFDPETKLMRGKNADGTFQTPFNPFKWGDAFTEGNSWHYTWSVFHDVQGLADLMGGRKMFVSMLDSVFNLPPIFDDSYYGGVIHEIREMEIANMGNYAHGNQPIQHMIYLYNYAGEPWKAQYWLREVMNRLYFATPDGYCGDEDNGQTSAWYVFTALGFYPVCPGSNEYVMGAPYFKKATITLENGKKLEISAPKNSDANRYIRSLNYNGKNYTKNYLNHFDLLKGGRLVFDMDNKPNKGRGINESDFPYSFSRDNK

[2] = biological target: T2, Alpha-1,2-mannosidase (BT_1878) (Bacteroides thetaiotaomicron) (UniProt Q8A6K3); assay: Activity of Bacteroides thetaiotaomicron GH92 alpha-mannosidase GH92 alpha-mannosidase 1878 assessed as mannose release at 1 mM after 16 hrs by HPLC relative to untreated control after 16 hrs by HPLC
T2 sequence (whole entry): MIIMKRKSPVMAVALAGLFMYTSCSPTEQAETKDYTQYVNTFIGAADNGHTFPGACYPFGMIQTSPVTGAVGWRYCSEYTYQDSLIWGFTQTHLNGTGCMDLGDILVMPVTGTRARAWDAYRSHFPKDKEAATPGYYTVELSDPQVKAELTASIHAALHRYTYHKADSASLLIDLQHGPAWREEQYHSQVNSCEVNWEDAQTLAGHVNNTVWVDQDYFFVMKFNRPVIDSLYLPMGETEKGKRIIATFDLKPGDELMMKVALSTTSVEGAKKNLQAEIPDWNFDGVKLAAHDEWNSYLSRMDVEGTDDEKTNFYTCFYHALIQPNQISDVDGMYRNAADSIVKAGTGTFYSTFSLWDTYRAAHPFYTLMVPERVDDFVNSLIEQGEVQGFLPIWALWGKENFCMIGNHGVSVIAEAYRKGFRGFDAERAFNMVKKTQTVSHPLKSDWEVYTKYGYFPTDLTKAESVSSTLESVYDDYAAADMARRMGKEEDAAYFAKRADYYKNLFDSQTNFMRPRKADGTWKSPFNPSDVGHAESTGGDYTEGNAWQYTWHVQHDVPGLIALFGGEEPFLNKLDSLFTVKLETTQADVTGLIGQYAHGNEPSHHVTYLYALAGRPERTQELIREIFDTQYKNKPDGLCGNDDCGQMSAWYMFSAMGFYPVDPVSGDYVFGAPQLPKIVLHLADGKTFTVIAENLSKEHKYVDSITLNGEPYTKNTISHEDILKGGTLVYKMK

[3] = biological target: T3, Alpha-1,2-mannosidase (BT_3527) (Bacteroides thetaiotaomicron) (UniProt Q8A1Y1); assay: Activity of Bacteroides thetaiotaomicron GH92 alpha-mannosidase GH92 alpha-mannosidase 3527 assessed as mannose release at 1 mM after 16 hrs by HPLC relative to untreated control after 16 hrs by HPLC
T3 sequence (whole entry): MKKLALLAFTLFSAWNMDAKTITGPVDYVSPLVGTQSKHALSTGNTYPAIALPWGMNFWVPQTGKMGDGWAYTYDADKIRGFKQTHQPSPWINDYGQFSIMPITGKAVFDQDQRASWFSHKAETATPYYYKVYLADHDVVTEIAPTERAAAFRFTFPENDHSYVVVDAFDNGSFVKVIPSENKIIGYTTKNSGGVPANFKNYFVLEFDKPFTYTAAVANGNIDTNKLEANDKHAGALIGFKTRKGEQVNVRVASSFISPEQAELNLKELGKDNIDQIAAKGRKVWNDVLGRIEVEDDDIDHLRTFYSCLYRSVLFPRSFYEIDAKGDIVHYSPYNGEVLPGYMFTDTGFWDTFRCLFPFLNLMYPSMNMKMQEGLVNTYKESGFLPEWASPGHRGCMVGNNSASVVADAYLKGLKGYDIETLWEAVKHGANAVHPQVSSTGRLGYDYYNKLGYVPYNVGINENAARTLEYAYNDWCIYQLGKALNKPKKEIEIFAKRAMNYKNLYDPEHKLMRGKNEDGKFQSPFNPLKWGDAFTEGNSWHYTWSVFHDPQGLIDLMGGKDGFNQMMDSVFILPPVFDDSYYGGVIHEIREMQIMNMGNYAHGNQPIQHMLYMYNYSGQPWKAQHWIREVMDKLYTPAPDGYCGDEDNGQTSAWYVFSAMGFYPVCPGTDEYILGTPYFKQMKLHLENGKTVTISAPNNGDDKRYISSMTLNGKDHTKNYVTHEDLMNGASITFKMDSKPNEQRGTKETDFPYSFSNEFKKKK

Row | Activity [1] | Activity [2] | Activity [3] | SMILES
1 | 0.042% | 3.6% | inactive | OC[C@H]1O[C@H](O[C@H]2[C@H](O)[C@H](O)[C@@H](O)O[C@@H]2CO)[C@@H](O)[C@@H](O)[C@@H]1O
2 | 0.0031% | 1.1% | inactive | OC[C@H]1O[C@H](OC[C@H]2O[C@H](O)[C@@H](O)[C@@H](O)[C@@H]2O)[C@@H](O)[C@@H](O)[C@@H]1O
3 | 100% | 4.5% | inactive | OC[C@H]1O[C@H](O[C@H]2[C@@H](O)[C@H](O)[C@@H](CO)O[C@@H]2O)[C@@H](O)[C@@H](O)[C@@H]1O
4 | inactive | – | inactive | OC[C@H]1O[C@H](O[C@@H]2[C@H](O)[C@@H](O)O[C@H](CO)[C@H]2O)[C@@H](O)[C@@H](O)[C@@H]1O
